# Measured values taken from patent publication US12486279B2, “Indole alkaloid with fungicidal effect” (priority 2020, dated 2025).
# Like-named read-outs stand apart in the source and are kept apart here.
# Legend:
# [1] = tested on: women exposed to Mancozeb; conditions: exposed women (Van Wendel de Joode et al. 2014); cited from earlier work
# agricultural workers = conditions: exposed agricultural workers (Dennis et al. 2010); cited from earlier work
# Fusarium oxysporum = experiment: Minimum inhibitory concentration (MIC), Fusarium oxysporum; format: cell-based; conditions: for Trend of absorbance with concentration: FIG. 6, 2 days; for Growth of the fungus on plates: 15.62-2000 mg/mL
# [2] = tested on: Colletotrichum gloeosporioides; experiment: Minimum inhibitory concentration (MIC), triphenyl tetrazolium chloride reduction, Colletotrichum gloeosporioides; format: cell-based; conditions: for Growth of the fungus on plates: 7.81 to 250 mg/mL, analyst 1; for Growth of the fungus on plates / Absorbance compared with the control: both days; for Absorbance compared with the control: all 8 concentrations; for MIC: Colletotrichum gloeosporioides
# Experimental: First, its effect on the growth of samples of Colletotrichum gloeosporioides was assessed. The weighting of the activity was established in a spectrophotometric model through the reduction of Triphenyl Tetrazolium Chloride as a measure of […] metabolism (oxide reduction system). The C. gloeosporioides samples were incubated for 24 h at 37° C. in the presence of increasing amounts of Andranone and the control agents Chlorothalonil and Mancozeb. After the indicated time, the amount of formazan produced was assessed by colorimetry, which is indicative of the amount of viable fungal cells after the treatments.
# various fish species = conditions: 48 to 96 h after exposure; cited from earlier work
# [3] = acidic or neutral conditions; cited from earlier work
# Daphnia magna = conditions: cited from earlier work
# small fish = conditions: cited from earlier work
# [4] = 6 technical replicates, 2 days, with standard deviation, 24 h at 37° C.
molecule,measurement,setting,value
Mancozeb,Ethylene thiourea (ETU) in urine,[1],elevated levels of ethylene thiourea in urine
same,Risk of developing cutaneous melanoma,agricultural workers,significantly increases the risk of developing cutaneous melanoma
same,Trend of absorbance with concentration,Fusarium oxysporum,the absorbance increases as the concentration of this compound increase
same,Growth of the fungus on plates,"Fusarium oxysporum; both days, no change in salt color","a slight growth of the fungus was observed, mainly at concentrations of 250 to 2000 mg/mL"
same,"Minimum inhibitory concentration (MIC), Average Analyst 1",[2]; [4],7.8 ± 0.0 mg/mL
same,"Minimum inhibitory concentration (MIC), Average Analyst 2",[2]; [4],15.6 ± 11.0 mg/mL
same,Growth of the fungus on plates,[2],no growth of the fungus was observed in any of the concentrations evaluated
same,Absorbance compared with the control,[2],the absorbance is lower compared to the absorbance of the control
same,"Minimum inhibitory concentration (MIC), Average","[2]; average of 2 analysts, with standard deviation",11.7 ± 5.5 mg/mL
"N#Cc1c(Cl)c(Cl)c(Cl)c(C#N)c1Cl [Chlorothalonil, tetrachloro-isophthalonitrile]",Median lethal toxicity values (LC50),various fish species,less than 20 μg/L
same,Stability to hydrolysis,[3],stable to hydrolysis
same,Concentration causing a delay in reproduction,Daphnia magna,32 ng/mL
same,Trend of absorbance with concentration,Fusarium oxysporum,trend similar to that of Mancozeb
same,MIC,"Fusarium oxysporum; Fusarium oxysporum, average of a biological replica on 2 different days",1 mg/mL
same,Absorbance (570 nm),"Fusarium oxysporum; at the concentration at which the MIC was established, average of 2 days",0.45 ± 0.04
same,Inhibition Type,Fusarium oxysporum; class from MIC,Moderate (a moderate inhibition occurs in compounds with a MIC between 0.6 to 1 mg/mL)
same,Growth of the fungus on plates,Fusarium oxysporum; day 1,the fungus was not able to grow in the highest concentrations of this fungicide
same,Growth of the fungus on plates,Fusarium oxysporum; day 2,"a slight growth of the fungus was observed, mainly at concentrations of 125 to 2000 mg/mL"
same,Growth of the fungus on plates,[2],the fungus was not able to grow in any of the evaluated concentrations
same,MIC,"[2]; 6 technical replicates, 2 days, with standard deviation, 24 h at 37° C., read-out: Minimum inhibitory concentration (MIC), Average Analyst 1",7.8 mg/mL
same,MIC,"[2]; 6 technical replicates, 2 days, with standard deviation, 24 h at 37° C., read-out: Minimum inhibitory concentration (MIC), Average Analyst 2",23.4 ± 22.1 mg/mL
same,MIC,"[2]; average of 2 analysts, with standard deviation, read-out: Minimum inhibitory concentration (MIC), Average",15.6 ± 11 mg/mL
same,Absorbance compared with the control,[2],lower absorbances than the control in the 8 concentrations
same,"Concentration decreasing eggs per spawning, hatchability of eggs and survival of the fry",small fish,6.5 ng/mL
